Assay results from the kinase profiling compilation of Christmann-Franck et al. (2016).

Key:
Experiment in all cases: radiometric filter-binding kinase assay
RIPK2 (human) = RIPK2 (human) (UniProt O43353); settings: compound 1.0 µM
MAPK1 (human) = MAPK1 (human) (UniProt P28482)
MAPK9 (human) = MAPK9 (human) (UniProt P45984)
SYK (human) = SYK (human) (UniProt P43405)
YES1 (human) = YES1 (human) (UniProt P07947); settings: compound 10.0 µM
DYRK1A (human) = DYRK1A (human) (UniProt Q13627); settings: compound 1.0 µM
CDK2 CCNA2 (human) = CDK2 CCNA2 (human) (UniProt P20248+P24941)
MAPK13 (human) = MAPK13 (human) (UniProt O15264)
MST4 (human) = MST4 (human) (UniProt Q9P289)
Sequence of MST4 (human) (Q9P289 whole entry, looked up): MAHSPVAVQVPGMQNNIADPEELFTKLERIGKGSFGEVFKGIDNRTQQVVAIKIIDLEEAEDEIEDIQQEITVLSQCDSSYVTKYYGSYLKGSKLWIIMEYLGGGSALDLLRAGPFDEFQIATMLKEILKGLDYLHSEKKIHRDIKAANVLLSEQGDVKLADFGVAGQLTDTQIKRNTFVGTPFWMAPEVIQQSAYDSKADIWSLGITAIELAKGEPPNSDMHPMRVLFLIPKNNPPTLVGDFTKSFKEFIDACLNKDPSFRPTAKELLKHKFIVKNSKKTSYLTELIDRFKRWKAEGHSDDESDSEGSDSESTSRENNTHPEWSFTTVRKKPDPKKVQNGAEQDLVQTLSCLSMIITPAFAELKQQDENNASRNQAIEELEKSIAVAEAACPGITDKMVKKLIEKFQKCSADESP

MAPK12 (human) = MAPK12 (human) (UniProt P53778)
Sequence of MAPK12 (human) (P53778 whole entry, looked up): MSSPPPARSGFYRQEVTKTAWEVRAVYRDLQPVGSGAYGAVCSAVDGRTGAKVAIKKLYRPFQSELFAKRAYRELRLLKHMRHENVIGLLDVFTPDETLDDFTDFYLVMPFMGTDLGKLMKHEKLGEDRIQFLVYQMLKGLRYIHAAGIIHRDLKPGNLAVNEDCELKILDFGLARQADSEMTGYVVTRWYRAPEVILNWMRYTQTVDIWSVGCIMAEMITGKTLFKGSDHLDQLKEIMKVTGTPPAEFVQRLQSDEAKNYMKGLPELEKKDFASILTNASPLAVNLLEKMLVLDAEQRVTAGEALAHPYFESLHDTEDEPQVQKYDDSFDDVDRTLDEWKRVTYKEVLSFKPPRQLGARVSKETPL

SIK3 (human) = SIK3 (human) (UniProt Q9Y2K2)
CSNK1G2 (human) = CSNK1G2 (human) (UniProt P78368)
INSRR (human) = INSRR (human) (UniProt P14616)
Sequence of INSRR (human) (P14616 whole entry, looked up): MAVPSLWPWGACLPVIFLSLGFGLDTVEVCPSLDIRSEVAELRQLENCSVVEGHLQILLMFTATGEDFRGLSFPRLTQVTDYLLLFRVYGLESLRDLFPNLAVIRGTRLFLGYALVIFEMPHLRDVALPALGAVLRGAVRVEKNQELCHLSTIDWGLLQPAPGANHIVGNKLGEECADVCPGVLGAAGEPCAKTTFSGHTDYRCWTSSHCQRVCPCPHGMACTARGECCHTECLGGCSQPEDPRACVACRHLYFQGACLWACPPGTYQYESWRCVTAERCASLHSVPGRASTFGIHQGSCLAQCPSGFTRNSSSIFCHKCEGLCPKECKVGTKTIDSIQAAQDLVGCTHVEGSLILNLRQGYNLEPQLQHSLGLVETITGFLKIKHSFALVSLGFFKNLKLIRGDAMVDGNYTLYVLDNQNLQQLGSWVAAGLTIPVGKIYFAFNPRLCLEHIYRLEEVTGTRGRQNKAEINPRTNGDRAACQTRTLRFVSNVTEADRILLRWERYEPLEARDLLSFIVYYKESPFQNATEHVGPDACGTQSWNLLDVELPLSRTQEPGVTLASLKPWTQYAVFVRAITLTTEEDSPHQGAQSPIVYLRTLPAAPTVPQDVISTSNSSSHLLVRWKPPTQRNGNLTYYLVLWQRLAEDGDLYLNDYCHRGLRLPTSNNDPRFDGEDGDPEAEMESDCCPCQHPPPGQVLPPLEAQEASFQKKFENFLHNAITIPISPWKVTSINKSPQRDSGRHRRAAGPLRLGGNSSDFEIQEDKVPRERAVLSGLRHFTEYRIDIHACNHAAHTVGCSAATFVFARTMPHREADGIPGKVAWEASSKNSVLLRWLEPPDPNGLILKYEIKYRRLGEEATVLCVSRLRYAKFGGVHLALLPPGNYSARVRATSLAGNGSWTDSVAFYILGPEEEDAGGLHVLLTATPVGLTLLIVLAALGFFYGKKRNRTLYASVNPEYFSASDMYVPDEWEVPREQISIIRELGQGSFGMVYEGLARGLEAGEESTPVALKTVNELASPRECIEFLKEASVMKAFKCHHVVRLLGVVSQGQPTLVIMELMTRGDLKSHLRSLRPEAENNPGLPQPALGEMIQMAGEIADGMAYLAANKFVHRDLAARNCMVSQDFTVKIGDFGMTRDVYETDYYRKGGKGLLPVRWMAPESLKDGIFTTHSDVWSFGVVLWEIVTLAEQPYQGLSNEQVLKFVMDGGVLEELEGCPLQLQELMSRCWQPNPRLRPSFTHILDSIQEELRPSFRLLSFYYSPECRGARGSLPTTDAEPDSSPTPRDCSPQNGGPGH

CaMK1 (human) = CaMK1 (human) (UniProt Q14012)
TESK1 (human) = TESK1 (human) (UniProt Q15569)
EPHB4 (human) = EPHB4 (human) (UniProt P54760)
NTRK1 (human) = NTRK1 (human) (UniProt P04629); settings: compound 10.0 µM
CSNK2A1 (human) = CSNK2A1 (human) (UniProt P68400)
IRAK4 (human) = IRAK4 (human) (UniProt Q9NWZ3)
Sequence of IRAK4 (human) (Q9NWZ3 whole entry, looked up): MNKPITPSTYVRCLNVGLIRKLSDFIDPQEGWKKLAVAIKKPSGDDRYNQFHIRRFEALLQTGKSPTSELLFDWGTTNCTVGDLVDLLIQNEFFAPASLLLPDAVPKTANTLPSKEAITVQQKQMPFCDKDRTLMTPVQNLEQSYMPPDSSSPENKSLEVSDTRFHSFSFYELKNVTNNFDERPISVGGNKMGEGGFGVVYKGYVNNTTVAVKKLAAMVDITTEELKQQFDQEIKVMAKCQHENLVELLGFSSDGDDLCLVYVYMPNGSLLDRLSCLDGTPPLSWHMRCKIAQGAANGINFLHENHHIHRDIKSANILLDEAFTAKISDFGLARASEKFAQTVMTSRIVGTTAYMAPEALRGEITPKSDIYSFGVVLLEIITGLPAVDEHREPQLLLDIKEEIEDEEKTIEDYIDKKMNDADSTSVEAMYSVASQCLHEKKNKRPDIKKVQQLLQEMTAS

PRKACA (human) = PRKACA (human) (UniProt P17612)
PLK1 (human) = PLK1 (human) (UniProt P53350)
BRSK1 (human) = BRSK1 (human) (UniProt Q8TDC3)
EPHB2 (human) = EPHB2 (human) (UniProt P29323)
MARK3 (human) = MARK3 (human) (UniProt P27448)
RPS6KA1 KD1 KD2 (human) = RPS6KA1 KD1 KD2 (human) (UniProt Q15418)
[1] = tested on: SGK1 (human), O00141 [S422D]
HIPK2 (human) = HIPK2 (human) (UniProt Q9H2X6)
IRAK1 (human) = IRAK1 (human) (UniProt P51617)
STK16 (human) = STK16 (human) (UniProt O75716)
Sequence of STK16 (human) (O75716 whole entry, looked up): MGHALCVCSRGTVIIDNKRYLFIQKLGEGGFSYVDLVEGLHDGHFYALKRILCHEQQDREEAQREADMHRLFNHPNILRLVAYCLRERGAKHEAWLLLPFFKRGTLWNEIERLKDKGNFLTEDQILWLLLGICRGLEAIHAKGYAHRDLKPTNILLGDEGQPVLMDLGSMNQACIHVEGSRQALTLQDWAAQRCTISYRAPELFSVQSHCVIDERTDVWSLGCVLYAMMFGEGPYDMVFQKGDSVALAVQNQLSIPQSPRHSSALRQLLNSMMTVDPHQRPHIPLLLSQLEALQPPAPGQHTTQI

TBK1 (human) = TBK1 (human) (UniProt Q9UHD2)
PRKCZ (human) = PRKCZ (human) (UniProt Q05513)
HIPK1 (human) = HIPK1 (human) (UniProt Q86Z02)
Sequence of HIPK1 (human) (Q86Z02 whole entry, looked up): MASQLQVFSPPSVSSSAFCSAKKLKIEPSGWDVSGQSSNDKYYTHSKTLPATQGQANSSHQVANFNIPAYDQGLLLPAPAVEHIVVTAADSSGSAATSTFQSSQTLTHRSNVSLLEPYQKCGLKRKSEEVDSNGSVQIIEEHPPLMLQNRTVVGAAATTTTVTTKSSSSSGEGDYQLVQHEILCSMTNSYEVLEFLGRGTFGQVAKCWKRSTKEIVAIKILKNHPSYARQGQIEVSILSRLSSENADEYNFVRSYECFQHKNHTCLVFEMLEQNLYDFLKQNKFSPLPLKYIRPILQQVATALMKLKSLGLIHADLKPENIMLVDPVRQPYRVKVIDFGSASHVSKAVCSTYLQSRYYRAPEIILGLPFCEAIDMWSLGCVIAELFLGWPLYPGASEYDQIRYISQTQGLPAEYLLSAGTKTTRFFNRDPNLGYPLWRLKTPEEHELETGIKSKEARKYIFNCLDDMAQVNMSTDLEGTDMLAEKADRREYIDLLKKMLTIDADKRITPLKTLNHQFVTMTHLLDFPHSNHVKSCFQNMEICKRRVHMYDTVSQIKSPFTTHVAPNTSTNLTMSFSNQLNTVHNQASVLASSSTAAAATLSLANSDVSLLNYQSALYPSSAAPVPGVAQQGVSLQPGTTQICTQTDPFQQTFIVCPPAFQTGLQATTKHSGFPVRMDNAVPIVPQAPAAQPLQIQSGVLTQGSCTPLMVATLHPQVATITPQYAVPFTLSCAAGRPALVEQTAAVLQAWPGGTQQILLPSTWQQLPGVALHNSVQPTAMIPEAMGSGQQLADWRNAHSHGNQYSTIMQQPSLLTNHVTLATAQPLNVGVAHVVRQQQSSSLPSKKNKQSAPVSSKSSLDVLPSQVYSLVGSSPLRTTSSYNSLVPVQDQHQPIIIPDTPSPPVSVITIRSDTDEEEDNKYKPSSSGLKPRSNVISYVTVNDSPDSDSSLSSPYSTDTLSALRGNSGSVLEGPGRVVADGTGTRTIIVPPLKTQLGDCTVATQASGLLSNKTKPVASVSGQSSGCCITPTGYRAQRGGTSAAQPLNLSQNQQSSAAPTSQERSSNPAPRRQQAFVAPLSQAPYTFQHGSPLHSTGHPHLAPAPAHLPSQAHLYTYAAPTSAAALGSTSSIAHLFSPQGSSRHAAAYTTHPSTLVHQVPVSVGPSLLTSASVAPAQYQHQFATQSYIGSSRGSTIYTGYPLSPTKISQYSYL

CSNK1D (human) = CSNK1D (human) (UniProt P48730)

Sequence of MAPK9 (human) (P45984 whole entry, looked up): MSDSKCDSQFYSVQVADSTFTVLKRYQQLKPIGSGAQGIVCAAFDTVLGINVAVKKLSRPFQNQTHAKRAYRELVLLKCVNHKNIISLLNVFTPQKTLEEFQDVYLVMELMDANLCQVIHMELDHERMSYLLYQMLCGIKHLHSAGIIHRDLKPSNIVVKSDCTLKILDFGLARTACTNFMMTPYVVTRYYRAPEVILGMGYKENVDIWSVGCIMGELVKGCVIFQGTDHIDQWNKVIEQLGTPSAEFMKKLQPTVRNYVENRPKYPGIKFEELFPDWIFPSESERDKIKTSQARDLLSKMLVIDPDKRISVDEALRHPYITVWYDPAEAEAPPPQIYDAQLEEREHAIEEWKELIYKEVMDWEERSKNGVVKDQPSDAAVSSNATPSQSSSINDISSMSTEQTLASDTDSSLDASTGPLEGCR
Sequence of MAPK1 (human) (P28482 whole entry, looked up): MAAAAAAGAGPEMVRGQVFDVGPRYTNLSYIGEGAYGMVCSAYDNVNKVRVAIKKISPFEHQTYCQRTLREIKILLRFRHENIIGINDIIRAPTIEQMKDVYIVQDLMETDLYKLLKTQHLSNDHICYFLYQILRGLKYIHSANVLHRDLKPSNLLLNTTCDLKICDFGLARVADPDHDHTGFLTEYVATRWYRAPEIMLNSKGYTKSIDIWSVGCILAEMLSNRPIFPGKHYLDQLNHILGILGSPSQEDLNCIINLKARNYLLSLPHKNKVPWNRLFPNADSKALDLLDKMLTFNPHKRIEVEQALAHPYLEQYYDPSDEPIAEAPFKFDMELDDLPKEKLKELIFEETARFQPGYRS

CNc1nc(Nc2ccc(C(=O)N3CCOCC3)cc2OC)ncc1Cl
residual activity (RIPK2 (human)): 79% | residual activity (MAPK1 (human); compound 1.0 µM): 79% | residual activity (MAPK1 (human); compound 10.0 µM): 69% | residual activity (MAPK9 (human); compound 1.0 µM): 76% | residual activity (MAPK9 (human); compound 10.0 µM): 46% | residual activity (SYK (human); compound 1.0 µM): 68% | residual activity (SYK (human); compound 10.0 µM): 85% | residual activity (YES1 (human)): 90% | residual activity (DYRK1A (human)): 79% | residual activity (CDK2 CCNA2 (human); compound 1.0 µM): 82% | residual activity (CDK2 CCNA2 (human); compound 10.0 µM): 65% | residual activity (MAPK13 (human); compound 1.0 µM): 87% | residual activity (MAPK13 (human); compound 10.0 µM): 86% | residual activity (MST4 (human); compound 1.0 µM): 101% | residual activity (MST4 (human); compound 10.0 µM): 106% | residual activity (MAPK12 (human); compound 1.0 µM): 88% | residual activity (MAPK12 (human); compound 10.0 µM): 94% | residual activity (SIK3 (human); compound 1.0 µM): 93% | residual activity (SIK3 (human); compound 10.0 µM): 82% | residual activity (CSNK1G2 (human); compound 1.0 µM): 96% | residual activity (CSNK1G2 (human); compound 10.0 µM): 93% | residual activity (INSRR (human); compound 1.0 µM): 126% | residual activity (INSRR (human); compound 10.0 µM): 97% | residual activity (CaMK1 (human); compound 1.0 µM): 85% | residual activity (CaMK1 (human); compound 10.0 µM): 66% | residual activity (TESK1 (human); compound 1.0 µM): 90% | residual activity (TESK1 (human); compound 10.0 µM): 83% | residual activity (EPHB4 (human); compound 1.0 µM): 94% | residual activity (EPHB4 (human); compound 10.0 µM): 113% | residual activity (NTRK1 (human)): 87% | residual activity (CSNK2A1 (human); compound 1.0 µM): 50% | residual activity (CSNK2A1 (human); compound 10.0 µM): 88% | residual activity (IRAK4 (human); compound 1.0 µM): 90% | residual activity (IRAK4 (human); compound 10.0 µM): 86% | residual activity (PRKACA (human); compound 1.0 µM): 85% | residual activity (PRKACA (human); compound 10.0 µM): 94% | residual activity (PLK1 (human); compound 1.0 µM): 97% | residual activity (PLK1 (human); compound 10.0 µM): 105% | residual activity (BRSK1 (human); compound 1.0 µM): 59% | residual activity (BRSK1 (human); compound 10.0 µM): 78% | residual activity (EPHB2 (human); compound 1.0 µM): 105% | residual activity (EPHB2 (human); compound 10.0 µM): 103% | residual activity (MARK3 (human); compound 1.0 µM): 91% | residual activity (MARK3 (human); compound 10.0 µM): 78% | residual activity (RPS6KA1 KD1 KD2 (human); compound 1.0 µM): 87% | residual activity (RPS6KA1 KD1 KD2 (human); compound 10.0 µM): 54% | residual activity ([1]; compound 1.0 µM): 94% | residual activity ([1]; compound 10.0 µM): 91% | residual activity (HIPK2 (human); compound 1.0 µM): 77% | residual activity (HIPK2 (human); compound 10.0 µM): 88% | residual activity (IRAK1 (human); compound 1.0 µM): 84% | residual activity (IRAK1 (human); compound 10.0 µM): 83% | residual activity (STK16 (human); compound 1.0 µM): 100% | residual activity (STK16 (human); compound 10.0 µM): 97% | residual activity (TBK1 (human); compound 1.0 µM): 86% | residual activity (TBK1 (human); compound 10.0 µM): 42% | residual activity (PRKCZ (human); compound 1.0 µM): 99% | residual activity (PRKCZ (human); compound 10.0 µM): 101% | residual activity (HIPK1 (human); compound 1.0 µM): 77% | residual activity (HIPK1 (human); compound 10.0 µM): 94% | residual activity (CSNK1D (human); compound 1.0 µM): 44% | residual activity (CSNK1D (human); compound 10.0 µM): 89%
